Test results published in paper PMC12562324, “Surfactin Structural Variants Differentially Modulate Plant Immune Responses” (Biomolecules, 2025).

Key:
[1] = test system: Arabidopsis thaliana Col-0 roots; experiment: [ROS]intra burst in roots, DCFH-DA fluorescent probe; format: cell-based; details: mix of homologues, 10 µM, fold change at 20 min vs mock (DMSO 0.1%); n = 9 from three independent experiments; Figure 2B,C
Protocol: For cytoplasmic hydrogen peroxide (reflecting cytosolic/intracellular ROS and referred to hereafter as [ROS]intra) measurement in roots, 15 mm long Arabidopsis thaliana root segments, isolated from different two-week-old plants, were placed in a well (one root/well) of a microplate (96 Flat Black-Greiner Bio-One^TM CellStar^TM, Thermo Fisher Scientific, Hampton, VA, USA) filled with sterile water. After overnight incubation, roots were treated with 50 µM DCFH-DA (dichloro-dihydro-fluorescein diacetate; ACROS Organics, Geel, Belgium) for 10 min in the dark and rinsed with PBS, and next, wells were filled with CLP/mock solution. Fluorescence measurements (excitation wavelength 492 nm, emission wavelength 530 nm) were conducted by a Spark® (Tecan, Männedorf, Switzerland) microplate reader, using nine readings per well. Data, expressed as relative fluorescence increase, were obtained by subtracting the fluorescence measured at the first time point from the fluorescence measured at each time point (with the first time point being taken as 0). The fluorescence fold increase was defined for each repeat as the ratio between the fluorescence increase obtained at one time point for treatments and the mean fluorescence increase obtained at the same time point in mock-treated tissues.

[2] = test system: Arabidopsis thaliana root protoplasts; experiment: NO burst in root protoplasts, DAF-DA probe; format: cell-based; details: 10 µM, fold change at 20 min vs mock; n = 12; Figure 3C; in roots Srf and Liche increased NO, Pumi had no impact
Protocol: Two-week-old Arabidopsis thaliana seedling roots (from 27 mg seeds) were collected and were cut into 1–2 mm segments and incubated in a protoplasting solution (20 mM MES pH 5.7, 0.4 M mannitol, 20 mM KCl, 10 mM CaCl2, 0.1% (w/v) BSA, 1.5% (w/v) cellulase R10 (Duchefa Biochemie, Haarlem, The Netherlands), 0.4% (w/v) macerozyme R10 (Duchefa Chimie)) for 3 h at room temperature and in the dark. After incubation, 1 mL of solution A (154 mM NaCl, 5 mM KCl, 125 mM CaCl2, 4 mM MES, pH = 5.7) was added inside. The suspension was agitated gently and filtered by a 70 µm pore filter to remove extra root debris. Filtered suspension was centrifuged at 850 g for 6 min at room temperature, and the pelleted protoplasts were rinsed three times with solution B (4 mM MES pH 5.7, 154 mM NaCl, 125 mM CaCl2, 5 mM KCl) before being resuspended in solution C (2 mM MES pH 5.7, 0.5 M mannitol, 20 mM KCl, 2 mM CaCl2) at a working concentration of 1–2 × 10^5 cells per mL. For the detection of intracellular NO, roots were processed as described above and 200 µL sterile water was replaced by 200 µL 5 μM DAF-DA in a buffered solution (10 mM Tris/HCl, pH = 7.4). Roots were incubated at room temperature for 1 h in the absence of light and then washed 3 times with Tris/HCl (10 mM, pH = 7.4). The fluorescence emitted by DAF-DA was detected by excitation at 495 nm and emission at 515 nm. Experiments where NO was measured after pretreatment with the calcium channel blocker or calcium chelator included an additional step where LaCl3 (10 mM; Merck Chemicals SA, Hoeilaart, Belgium) or EGTA (1 mM; Merck Chemicals SA, Hoeilaart, Belgium) was added three minutes before treatments. Data were processed as described above for ROS. For NO measurements in protoplasts, the suspension was incubated in the same conditions before being distributed (50 µL) in microplate wells and treated with the CLPs at a 10 µM final concentration or with 0.1% DMSO as a mock.

[3] = UPLC-MS retention on C18 as relative hydrophobicity; format: physicochemical; details: chromatographic, C18 (BEH C18 1.7 µm), water/ACN with 0.1% TFA gradient, 40 °C; order of homologue groups Srf, Liche, Pumi; Figure 1B,D,F
Source text: The purified material was freeze-dried (lyophilisator Martin Christ alpha 3–4 LSC BASIC) before storage. All the CLPs used in this research were freshly prepared from powder before each experiment. The concentration of Liche or Pumi was referred to the concentration of Srf and determined by MassHunter Workstation software (version B.09.00) after data collection from an Agilent Technologies 1290 Infinity (Santa Clara, CA, USA), with a C18 reversed-phase column (waters acquity premier BEH C18 1.7 µm 2.1 mm × 50 mm) being used at a flow rate of 0.6 mL/min and a temperature of 40 °C. […] That was coupled with a mass detector (Agilent Technologies 6530 Accurate-Mass Q-TOF LC/MS, Santa Clara, CA, USA) in positive mode, with the parameters set up as follows: drying gas temperature of 300 °C, drying gas of 8 L/min, nebulizer of 35 psi, sheath gas temperature of 350 °C, flow rate of sheath gas of 11 L/min, capillary voltage of 3.5 kV, nozzle voltage (expt) of 1 kV, fragmentor voltage of 175 V, skimmer voltage of 65 V, and octopole radiofrequency of 750 V. Accurate mass spectra were recorded in the m/z range of 100–1700. […]

Substance | [ROS]intra production in roots vs mock [1] | NO burst in root protoplasts, trend compared to roots [2] | UPLC-MS elution order (relative hydrophobicity) [3]
lichenysin | induced a significantly higher production of [ROS]intra | very similar trend | –
pumilacidin | did not retain any significant triggering activity | very similar trend | then Pumi
surfactin [Srf] | induced a significantly higher production of [ROS]intra | very similar trend | eluted first
